According to patent US8217013B2, “Polyene diester antibiotics” (priority 2007, dated 2012):
Where two headings read alike, the source gives them in different places.

Assays:
Experiment in all cases: Test of antibacterial activity in vitro (bacteria-inhibition zone)
Format in all cases: cell-based
Candida albicans = conditions: for zone of inhibition at 5.6 µg/mL: Candida albicans
Excerpt: (§1) Test of Antibacterial Activity In Vitro
(§2) Experiment drugs: the polyene diester compounds prepared by examples 1-12
(§3) Control drugs: amphotericin B (standard product) • mycostatin (standard product) • natamycin (standard product)
2.1 Preparation of Candida albicans suspension: PHARMACOPOEIA OF THE PEOPLES REPUBLIC OF CHINA, second part, 2005 edition, appendix p 81-84.
(§4) Taking appropriate amount of the above mentioned amphotericin B, mycostatin, natamycin and the polyene diester compounds prepared by examples 1-8 and 10-12, dissolving in a little dimethyl sulfoxide respectively, using pH7 phosphate buffer to dilute into solution which is equivalent to contain amphotericin B, mycostatin, natamycin 280 Units per milliliter, taking 1 ml and using pH7 phosphate buffer to quantitatively dilute into solution which is equivalent to contain amphotericin B 1.4 μg/ml and 2.8 μg/ml, and is equivalent to contain 5.6 μg/ml of mycostatin and natamycin.
(§5) In addition, preparing the solution according to the same method, adding 40% defibered sheep serum, using pH7 phosphate buffer to quantitatively dilute into unit solution which is equivalent to contain amphotericin B 1.4 μg/ml and 2.8 μg/ml, and is equivalent to contain 5.6 μg/ml of mycostatin and natamycin. Testing according to PHARMACOPOEIA OF THE PEOPLES REPUBLIC OF CHINA, second part, 2005 edition, appendix XIA The Antibiotics Microorganism Test.
(§6) Medium: Improved Martin Agar Medium, PHARMACOPOEIA OF THE PEOPLES REPUBLIC OF CHINA, second part, 2005 edition, appendix p 84.
Test method: Double-plate counting method; […] bacteria bed 15 ml to replace the double layers, culture temperature: 37° C., time: 24 h; strain concentration: 1% […]

Candida mycoderma = conditions: for zone of inhibition at 5.6 µg/mL: 5.6 μg/ml after conversion; for diameter of the bacteria-inhibition zone, Candida mycoderma 0 h / diameter of the bacteria-inhibition zone, Candida mycoderma 6 h / diameter of the bacteria-inhibition zone, Candida mycoderma 24 h / diameter of the bacteria-inhibition zone, Candida mycoderma 48 h: 2.8 μg/ml after conversion
Excerpt: as §1, §2, §3
2.3 Preparation of Candida mycoderrna suspension: the method is as same as preparation of Saccharomyces cerevisiae suspension
as §4, §5, §6
(§7) Test method: Double-plate counting method; […] bacteria bed 15 ml to replace the double layers, culture temperature: 37° C., time: 24 h; strain concentration: 1%
(§8) Medium: Modified Martin Broth Medium

Saccharomyces cerevisiae = conditions: for zone of inhibition at 5.6 µg/mL: Saccharomyces cerevisiae, 5.6 μg/ml after conversion; for diameter of the bacteria-inhibition zone, Saccharomyces cerevisiae 0 h / diameter of the bacteria-inhibition zone, Saccharomyces cerevisiae 6 h / diameter of the bacteria-inhibition zone, Saccharomyces cerevisiae 24 h / diameter of the bacteria-inhibition zone, Saccharomyces cerevisiae 48 h: 2.8 μg/ml after conversion
Excerpt: as §1, §2, §3
2.2 Preparation of Saccharomyces cerevisiae suspension: PHARMACOPOEIA OF THE PEOPLES REPUBLIC OF CHINA, second part, 2005 edition, appendix p 80, p 83.
as §4, §5, §6, §7, §8

[1] = 0 h, 2.8 μg/ml after conversion, no serum
[2] = 0 h, 2.8 μg/ml after conversion, serum added (40% defibered sheep serum)
[3] = 6 h, 2.8 μg/ml after conversion, no serum
[4] = 24 h, 2.8 μg/ml after conversion, no serum
[5] = 48 h, 2.8 μg/ml after conversion, no serum
[6] = 0 h, serum added (40% defibered sheep serum)

C[C@@H]1C/C=C/C=C/C=C/C=C/[C@H](O[C@@H]2O[C@H](C)[C@@H](O)[C@H](N)[C@@H]2O)C[C@@H]2O[C@](O)(C[C@@H](O)C[C@H]3O[C@@H]3/C=C/C(=O)O1)C[C@H](O)[C@H]2C(=O)O [Natamycin, natamycin, reference compound]
14 to 16 mm: zone of inhibition at 5.6 µg/mL (Saccharomyces cerevisiae; 0 h, no serum, read-out: diameter of the bacteria-inhibition zone, Saccharomyces cerevisiae 0 h) | zone of inhibition at 5.6 µg/mL (Saccharomyces cerevisiae; 6 h, no serum, read-out: diameter of the bacteria-inhibition zone, Saccharomyces cerevisiae 6 h) | zone of inhibition at 5.6 µg/mL (Saccharomyces cerevisiae; 24 h, no serum, read-out: diameter of the bacteria-inhibition zone, Saccharomyces cerevisiae 24 h) | zone of inhibition at 5.6 µg/mL (Saccharomyces cerevisiae; 48 h, no serum, read-out: diameter of the bacteria-inhibition zone, Saccharomyces cerevisiae 48 h)
++ (9-12 mm: ++): diameter of the bacteria-inhibition zone, Candida albicans 0 h (Candida albicans; 0 h, 5.6 μg/ml after conversion, serum added (40% defibered sheep serum)) | diameter of the bacteria-inhibition zone, Candida albicans 6 h (Candida albicans; 6 h, 5.6 μg/ml after conversion, serum added (40% defibered sheep serum)) | diameter of the bacteria-inhibition zone, Candida albicans 24 h (Candida albicans; 24 h, 5.6 μg/ml after conversion, serum added (40% defibered sheep serum)) | diameter of the bacteria-inhibition zone, Candida albicans 48 h (Candida albicans; 48 h, 5.6 μg/ml after conversion, serum added (40% defibered sheep serum))
9 to 12 mm: zone of inhibition at 5.6 µg/mL (Candida albicans; 0 h, 5.6 μg/ml after conversion, no serum, read-out: diameter of the bacteria-inhibition zone, Candida albicans 0 h) | zone of inhibition at 5.6 µg/mL (Candida albicans; 6 h, 5.6 μg/ml after conversion, no serum, read-out: diameter of the bacteria-inhibition zone, Candida albicans 6 h) | zone of inhibition at 5.6 µg/mL (Candida albicans; 24 h, 5.6 μg/ml after conversion, no serum, read-out: diameter of the bacteria-inhibition zone, Candida albicans 24 h) | zone of inhibition at 5.6 µg/mL (Candida albicans; 48 h, 5.6 μg/ml after conversion, no serum, read-out: diameter of the bacteria-inhibition zone, Candida albicans 48 h)
12 to 14 mm: zone of inhibition at 5.6 µg/mL (Candida mycoderma; 0 h, no serum, read-out: diameter of the bacteria-inhibition zone, Candida mycoderma 0 h) | zone of inhibition at 5.6 µg/mL (Candida mycoderma; 6 h, no serum, read-out: diameter of the bacteria-inhibition zone, Candida mycoderma 6 h) | zone of inhibition at 5.6 µg/mL (Candida mycoderma; 24 h, no serum, read-out: diameter of the bacteria-inhibition zone, Candida mycoderma 24 h) | zone of inhibition at 5.6 µg/mL (Candida mycoderma; 48 h, no serum, read-out: diameter of the bacteria-inhibition zone, Candida mycoderma 48 h) | zone of inhibition at 5.6 µg/mL (Saccharomyces cerevisiae; 0 h, serum added (40% defibered sheep serum), read-out: diameter of the bacteria-inhibition zone, Saccharomyces cerevisiae 0 h) | zone of inhibition at 5.6 µg/mL (Saccharomyces cerevisiae; 6 h, serum added (40% defibered sheep serum), read-out: diameter of the bacteria-inhibition zone, Saccharomyces cerevisiae 6 h) | zone of inhibition at 5.6 µg/mL (Saccharomyces cerevisiae; 24 h, serum added (40% defibered sheep serum), read-out: diameter of the bacteria-inhibition zone, Saccharomyces cerevisiae 24 h) | zone of inhibition at 5.6 µg/mL (Saccharomyces cerevisiae; 48 h, serum added (40% defibered sheep serum), read-out: diameter of the bacteria-inhibition zone, Saccharomyces cerevisiae 48 h)

CC(OC(=O)OC1CCCCC1)OC(=O)C1C(O)CC2(O)CC(O)CC(O)C(O)CCC(O)CC(O)CC(=O)OC(C)C(C)C(O)C(C)C=CC=CC=CC=CC=CC=CC=CC(OC3OC(C)C(O)C(N)C3O)CC1O2 (stereo not drawn) [amphotericin B cyclohexyloxycarbonyloxyethyl ester]
+ (7-9 mm: +): diameter of the bacteria-inhibition zone, Candida albicans 0 h (Candida albicans; [1]) | diameter of the bacteria-inhibition zone, Candida albicans 0 h (Candida albicans; [2]) | diameter of the bacteria-inhibition zone, Candida albicans 6 h (Candida albicans; [3]) | diameter of the bacteria-inhibition zone, Candida albicans 24 h (Candida albicans; [4]) | diameter of the bacteria-inhibition zone, Candida albicans 48 h (Candida albicans; [5])
++ (9-12 mm: ++): diameter of the bacteria-inhibition zone, Candida albicans 6 h (Candida albicans; 6 h, 2.8 μg/ml after conversion, serum added (40% defibered sheep serum)) | diameter of the bacteria-inhibition zone, Candida mycoderma 0 h (Candida mycoderma; 0 h, no serum) | diameter of the bacteria-inhibition zone, Candida mycoderma 0 h (Candida mycoderma; [6]) | diameter of the bacteria-inhibition zone, Candida mycoderma 6 h (Candida mycoderma; 6 h, no serum) | diameter of the bacteria-inhibition zone, Candida mycoderma 24 h (Candida mycoderma; 24 h, no serum) | diameter of the bacteria-inhibition zone, Candida mycoderma 48 h (Candida mycoderma; 48 h, no serum) | diameter of the bacteria-inhibition zone, Saccharomyces cerevisiae 0 h (Saccharomyces cerevisiae; 0 h, no serum) | diameter of the bacteria-inhibition zone, Saccharomyces cerevisiae 0 h (Saccharomyces cerevisiae; [6]) | diameter of the bacteria-inhibition zone, Saccharomyces cerevisiae 6 h (Saccharomyces cerevisiae; 6 h, no serum) | diameter of the bacteria-inhibition zone, Saccharomyces cerevisiae 24 h (Saccharomyces cerevisiae; 24 h, no serum) | diameter of the bacteria-inhibition zone, Saccharomyces cerevisiae 48 h (Saccharomyces cerevisiae; 48 h, no serum)

CCOC(=O)OC(C)OC(=O)[C@H]1[C@@H]2C[C@@H](OC3OC(C)C(O)C(N)C3O)/C=C/C=C/C=C/C=C/C=C/C=C/C=C/[C@H](C)[C@@H](O)[C@@H](C)[C@H](C)OC(=O)C[C@H](O)C[C@H](O)CC[C@@H](O)[C@H](O)C[C@H](O)C[C@](O)(C[C@@H]1O)O2 (stereo partly drawn) [amphotericin B ethoxycarbonyloxyethyl ester]
++ (9-12 mm: ++): diameter of the bacteria-inhibition zone, Candida mycoderma 6 h (Candida mycoderma; 6 h, serum added (40% defibered sheep serum)) | diameter of the bacteria-inhibition zone, Saccharomyces cerevisiae 0 h (Saccharomyces cerevisiae; 0 h, no serum) | diameter of the bacteria-inhibition zone, Saccharomyces cerevisiae 0 h (Saccharomyces cerevisiae; [6]) | diameter of the bacteria-inhibition zone, Saccharomyces cerevisiae 6 h (Saccharomyces cerevisiae; 6 h, no serum) | diameter of the bacteria-inhibition zone, Saccharomyces cerevisiae 24 h (Saccharomyces cerevisiae; 24 h, no serum) | diameter of the bacteria-inhibition zone, Saccharomyces cerevisiae 48 h (Saccharomyces cerevisiae; 48 h, no serum)
+ (7-9 mm: +): diameter of the bacteria-inhibition zone, Candida mycoderma 0 h (Candida mycoderma; 0 h, no serum) | diameter of the bacteria-inhibition zone, Candida mycoderma 0 h (Candida mycoderma; [6]) | diameter of the bacteria-inhibition zone, Candida mycoderma 6 h (Candida mycoderma; 6 h, no serum) | diameter of the bacteria-inhibition zone, Candida mycoderma 24 h (Candida mycoderma; 24 h, no serum) | diameter of the bacteria-inhibition zone, Candida mycoderma 48 h (Candida mycoderma; 48 h, no serum)

CC(C)OC(=O)OC(C)OC(=O)C1C(O)CC2(O)CC(O)CC(O)C(O)CCC(O)CC(O)CC(=O)OC(C)C(C)C(O)C(C)C=CC=CC=CC=CC=CC=CC=CC(OC3OC(C)C(O)C(N)C3O)CC1O2 (stereo not drawn) [amphotericin B isopropoxycarbonyloxyethyl ester]
++ (9-12 mm: ++): diameter of the bacteria-inhibition zone, Candida albicans 0 h (Candida albicans; [1]) | diameter of the bacteria-inhibition zone, Candida albicans 0 h (Candida albicans; [2]) | diameter of the bacteria-inhibition zone, Candida albicans 6 h (Candida albicans; [3]) | diameter of the bacteria-inhibition zone, Candida albicans 24 h (Candida albicans; [4]) | diameter of the bacteria-inhibition zone, Candida albicans 48 h (Candida albicans; [5]) | diameter of the bacteria-inhibition zone, Candida mycoderma 0 h (Candida mycoderma; 0 h, no serum) | diameter of the bacteria-inhibition zone, Candida mycoderma 0 h (Candida mycoderma; [6]) | diameter of the bacteria-inhibition zone, Candida mycoderma 6 h (Candida mycoderma; 6 h, no serum) | diameter of the bacteria-inhibition zone, Candida mycoderma 24 h (Candida mycoderma; 24 h, no serum) | diameter of the bacteria-inhibition zone, Candida mycoderma 48 h (Candida mycoderma; 48 h, no serum) | diameter of the bacteria-inhibition zone, Saccharomyces cerevisiae 0 h (Saccharomyces cerevisiae; [6])
+ (7-9 mm: +): diameter of the bacteria-inhibition zone, Saccharomyces cerevisiae 0 h (Saccharomyces cerevisiae; 0 h, no serum) | diameter of the bacteria-inhibition zone, Saccharomyces cerevisiae 6 h (Saccharomyces cerevisiae; 6 h, no serum) | diameter of the bacteria-inhibition zone, Saccharomyces cerevisiae 24 h (Saccharomyces cerevisiae; 24 h, no serum) | diameter of the bacteria-inhibition zone, Saccharomyces cerevisiae 48 h (Saccharomyces cerevisiae; 48 h, no serum)

Cc1oc(=O)oc1COC(=O)C1C(O)CC2(O)CC(O)CC(O)C(O)CCC(O)CC(O)CC(=O)OC(C)C(C)C(O)C(C)C=CC=CC=CC=CC=CC=CC=CC(OC3OC(C)C(O)C(N)C3O)CC1O2 (stereo not drawn) [amphotericin B-5-methyl-1,3-dioxol-2-one-4-methyl ester]
++ (9-12 mm: ++): diameter of the bacteria-inhibition zone, Candida albicans 0 h (Candida albicans; [1]) | diameter of the bacteria-inhibition zone, Candida albicans 0 h (Candida albicans; [2]) | diameter of the bacteria-inhibition zone, Candida albicans 6 h (Candida albicans; [3]) | diameter of the bacteria-inhibition zone, Candida albicans 24 h (Candida albicans; [4]) | diameter of the bacteria-inhibition zone, Candida albicans 48 h (Candida albicans; [5]) | diameter of the bacteria-inhibition zone, Candida mycoderma 0 h (Candida mycoderma; 0 h, no serum) | diameter of the bacteria-inhibition zone, Candida mycoderma 0 h (Candida mycoderma; [6]) | diameter of the bacteria-inhibition zone, Candida mycoderma 6 h (Candida mycoderma; 6 h, no serum) | diameter of the bacteria-inhibition zone, Candida mycoderma 24 h (Candida mycoderma; 24 h, no serum) | diameter of the bacteria-inhibition zone, Candida mycoderma 48 h (Candida mycoderma; 48 h, no serum) | diameter of the bacteria-inhibition zone, Saccharomyces cerevisiae 0 h (Saccharomyces cerevisiae; 0 h, no serum) | diameter of the bacteria-inhibition zone, Saccharomyces cerevisiae 0 h (Saccharomyces cerevisiae; [6]) | diameter of the bacteria-inhibition zone, Saccharomyces cerevisiae 6 h (Saccharomyces cerevisiae; 6 h, no serum) | diameter of the bacteria-inhibition zone, Saccharomyces cerevisiae 24 h (Saccharomyces cerevisiae; 24 h, no serum) | diameter of the bacteria-inhibition zone, Saccharomyces cerevisiae 48 h (Saccharomyces cerevisiae; 48 h, no serum)

amphotericin B ethyl acetate
++ (9-12 mm: ++): diameter of the bacteria-inhibition zone, Candida mycoderma 0 h (Candida mycoderma; 0 h, no serum) | diameter of the bacteria-inhibition zone, Candida mycoderma 0 h (Candida mycoderma; [6]) | diameter of the bacteria-inhibition zone, Candida mycoderma 6 h (Candida mycoderma; 6 h, no serum) | diameter of the bacteria-inhibition zone, Candida mycoderma 24 h (Candida mycoderma; 24 h, no serum) | diameter of the bacteria-inhibition zone, Candida mycoderma 48 h (Candida mycoderma; 48 h, no serum) | diameter of the bacteria-inhibition zone, Saccharomyces cerevisiae 0 h (Saccharomyces cerevisiae; [6])
+ (7-9 mm: +): diameter of the bacteria-inhibition zone, Saccharomyces cerevisiae 0 h (Saccharomyces cerevisiae; 0 h, no serum) | diameter of the bacteria-inhibition zone, Saccharomyces cerevisiae 6 h (Saccharomyces cerevisiae; 6 h, no serum) | diameter of the bacteria-inhibition zone, Saccharomyces cerevisiae 24 h (Saccharomyces cerevisiae; 24 h, no serum) | diameter of the bacteria-inhibition zone, Saccharomyces cerevisiae 48 h (Saccharomyces cerevisiae; 48 h, no serum)
